Assay results published in article PMC11615764, “Discovery of Ketal‐Ester Ionizable Lipid Nanoparticle with Reduced Hepatotoxicity, Enhanced Spleen Tropism for mRNA Vaccine Delivery” (Advanced Science, 2024).
Entries after “also recorded” stand apart in the source; their conditions may differ. Like-named read-outs stand apart in the source and are kept apart here.

Key:
[1] = Encapsulation efficiency of LNPs, RiboGreen accessibility assay; type: physicochemical; conditions: LNP: ionizable lipid/DSPC/Chol/DMG‐PEG2000 50:10:38.5:1.5, N/P 6
Description: (§1) Particle size and polydispersity index (PDI) were determined by dynamic light scattering (DLS), apparent pKa was assessed using 6‐(p‐toluidino)‐2‐naphthalenesulfonic acid (TNS) dye‐binding assay, while encapsulation efficiency was evaluated by a RiboGreen accessibility assay.
(§2) The sizes of the LNP formulations were assessed by DLS (Malvern Zetasizer Pro). Quant‐it RiboGreen assay (ThermoFisher Scientific, Cat# R11490) was used to measure the encapsulation efficiency of the LNP formulations. Briefly, LNPs treated by 1% (v/v) Triton X‐100 (Adamas‐beta) to disrupt LNP structure and release mRNA and untreated LNPs were diluted to a concentration below 2 µg mRNA/mL, then reacted with an equal volume of RiboGreen assay solution at a 200‐fold dilution. Standard curves were generated within the range between 0.0 to 2.0 µg mRNA/mL using a series of free mRNA solutions with or without 1% v/v Triton X‐100. The concentrations of free mRNA and total mRNA in the formulation were determined using bulk fluorescent reading (excitation: 490 nm, emission: 535 nm) of the sample against the corresponding standard curves. The amount of RNA loaded into the LNPs (internal RNA) was calculated by subtracting the values obtained in 1 x TE (external RNA) from 1 x TE + 1% Triton X‐100 (total RNA). Subsequently, the encapsulation efficiency was calculated as the percentage obtained by dividing the amount of internal RNA by the total RNA amount.

293T cells [2] = conditions: 50 µM
[3] = LNP apparent pKa, TNS dye‐binding assay; type: physicochemical; conditions: apparent pKa of the LNP
Description: Following the formulation methods of SpikeVax and Onpattro, all KEL LNPs were formulated with standard helper lipids: DSPC, Chol, and DMG‐PEG2000 at a molar ratio of Ionizable lipid/DSPC/Chol/DMG‐PEG2000 50:10:38.5:1.5, and at an ionizable lipid to RNA charge ratio (N/P) of 6.^[ [25] ^] Particle size and polydispersity index (PDI) were determined by dynamic light scattering (DLS), apparent pKa was assessed using 6‐(p‐toluidino)‐2‐naphthalenesulfonic acid (TNS) dye‐binding assay, while encapsulation efficiency was evaluated by a RiboGreen accessibility assay.
A series of buffers with pH values varying by 1 between 3.0 and 12.0 were prepared by titrating a solution containing 10 mM citrate, 10 mM phosphate, 10 mM borate, and 150 mM NaCl with 1.0 M HCl and 0.5 M NaOH. LNPs were diluted to 75 µM ionizable lipid, TNS to 6 µM in these buffers. Fluorescence intensity was determined using a Thermo Scientific 3020 spectrophotometer (325 nm excitation/435 nm emission). With the resulting fluorescence values, a sigmoidal plot of fluorescence versus buffer pH was created. The […] inflection point of this curve was the apparent pKa of the LNP formulation.

[4] = mouse, in vivo, iv, 0.5 mg/kg
[5] = LNP particle size and PDI by dynamic light scattering; type: physicochemical; conditions: LNP: ionizable lipid/DSPC/Chol/DMG‐PEG2000 50:10:38.5:1.5, N/P 6; DLS
Description: as §1, §2

Balb/c mice = test: In vivo firefly luciferase mRNA expression, whole‐body bioluminescence; parameters: species or system mouse; conditions: mLuci LNP, female Balb/c mice; for delivery potency (whole‐body luciferase), IV and IM: IV 1 mg/kg and IM 0.25 mg/kg; for whole‐body luciferase activity after IM administration: IM 0.25 mg/kg, compared with DLin‐MC3‐DMA LNP; for whole‐body luciferase activity after IV administration: IV 1 mg/kg
Description: Subsequently, the formulated KEL LNPs were evaluated for their in vivo delivery efficiency (Figure 1C). Wild‐type female Balb/c mice were administered with a single dose of LNPs containing firefly luciferase mRNA (mLuci) via IV or intramuscular (IM) injection (Figure 2A,B), followed by whole‐body luciferase activity assay. A control group receiving DLin‐MC3‐DMA‐based LNP was included in each experiment to facilitate comparisons across experiments.
Balb/c mice were injected intramuscularly (0.25 mg k^−1g) or intravenously (1 mg k^−1g) with LNPs. At 6 or 24 hrs post‐administration, mice were injected intraperitoneally with 150 mg k^−1g of D‐luciferin monosodium salt (ThermoFisher) and imaged using the in vivo imaging system (IVIS Lumina LT Series III) 10 min post intraperitoneally. 1 × PBS (IM: 50 µL; IV: 200 µL) was injected as a negative control.

293T cells [6] = test: Cell Counting Kit‐8 cytotoxicity assay; conditions: lipid alone at 50 µM, CCK8, 48 h
[7] = Biodegradability of LNPs after IV injection, ionizable lipid in plasma by LC‐MS/MS; conditions: mLuci LNP IV 0.5 mg/Kg, mice
human liver microsomes = test: Microsomal stability of ionizable lipids, human; conditions: 0.5 mg protein/mL, NADPH and UDPGA

Row | SMILES | Encapsulation efficiency (%) [1] [%] | pKa [3] | PDI [5] | Size (nm) [5] [nm] | cell viability (293T cells [2]) | decline of ionizable lipid level in plasma during the first 6 hrs [4] | delivery potency (whole‐body luciferase), IV and IM (Balb/c mice) | whole‐body luciferase activity after IM administration (Balb/c mice) | whole‐body luciferase activity after IV administration (Balb/c mice) | whole‐body luciferase activity after IV administration (Balb/c mice; 1 mg/kg) | cell viability (293T cells [6]) | decline of ionizable lipid level in plasma during the first 6 hrs [7] | ionizable lipid level in plasma after 12 hrs [7] [ng/mL] | ionizable lipid level in plasma after 24 hrs [7] | remaining after 120 minutes (human liver microsomes)
1 | CCCCC/C=C\C/C=C\CCCCCCCCC(CCCCCCCC/C=C\C/C=C\CCCCC)OC(=O)CCCN(C)C [DLin‐MC3‐DMA, reference compound] | 96.7 | 6.33 | 0.15 | 72.70 | over 80% | reduced faster than (4S)‐KEL12 | – | – | – | – | – | – | – | – | –
2 | CCCCCCCCCCCOC(=O)CCCCCC1(CCCCCCCC(=O)OC(CCCCCCCC)CCCCCCCC)OCC(CCN(CC)CC)O1 (stereo not drawn) [KEL6] | 97.5 | 6.89 | 0.06 | 80.34 | – | – | – | – | – | – | – | – | – | – | –
3 | CCCCCCCCCCCOC(=O)CCCCCC1(CCCCCCCC(=O)OC(CCCCCCCC)CCCCCCCC)OCC(CCN(C)CCC)O1 (stereo not drawn) [KEL7] | 97.2 | 5.91 | 0.10 | 61.73 | – | – | lower delivery efficiency for both IV and IM administration | – | – | – | – | – | – | – | –
4 | CCCCCCCCCCCOC(=O)CCCCCC1(CCCCCCCC(=O)OC(CCCCCCCC)CCCCCCCC)OCC(CCN(CC)C(C)C)O1 (stereo not drawn) [KEL8] | 97.6 | 6.17 | 0.03 | 71.68 | – | – | – | – | lower potency than those with pKa of 6.7‐7.0 | – | – | – | – | – | –
5 | CCCCCCCCCCCNC(=O)CCCCCC1(CCCCCCCC(=O)NC(CCCCCCCC)CCCCCCCC)OCC(CCN(C)C)O1 (stereo not drawn) [KEL9] | 98.2 | 7.03 | 0.05 | 125.0 | – | – | significantly reduced delivery potency; also recorded: lower delivery efficiency for both IV and IM administration | – | – | – | – | – | – | – | –
6 | CCCCCCCCC(CCCCCCCC)OC(=O)CCCCCCCC1(CCCCCCCC(=O)OC(CCCCCCCC)CCCCCCCC)OCC(CCN(C)C)O1 (stereo not drawn) [KEL10] | 96.5 | 6.09 | 0.10 | 69.23 | – | – | potency diminished compared to KEL2 | – | lower potency than those with pKa of 6.7‐7.0 | – | – | – | – | – | –
7 | CCCCCCCCCCCOC(=O)CCCCCC1(CCCCCC(=O)OCCCCCCCCCCC)OCC(CCN(C)C)O1 (stereo not drawn) [KEL11] | 93.3 | 6.88 | 0.34 | 110.3 | – | – | further decrease in potency compared to KEL10 | – | – | – | – | – | – | – | –
8 | CCCCCCCCCCC(=O)OCCCCCCC1(CCCCCCCCOC(=O)C(CCCCCCCC)CCCCCCCC)OCC(CCN(C)C)O1 (stereo not drawn) [KEL13] | 91.0 | 6.44 | 0.09 | 99.68 | – | – | higher potency than LNPs with either double branched tails (KEL10) or double linear tails (KEL11) | significantly higher luciferase activity than DLin‐MC3‐DMA LNP | – | lower potency than those with pKa of 6.7‐7.0 | – | – | – | – | –
9 | CCCCCCCCCCCOC(=O)CCCCCN(CCO)CCCCCCCC(=O)OC(CCCCCCCC)CCCCCCCC [SM‐102] | – | – | – | – | – | – | – | – | – | – | over 80% | reduced faster than (4S)‐KEL12 | < 10 | undetectable | about 80%

The next lines start with results.

Row | Encapsulation efficiency (%) [1] [%] | pKa [3] | PDI [5] | Size (nm) [5] [nm] | SMILES | cell viability (293T cells [2]) | decline of ionizable lipid level in plasma during the first 6 hrs [4] | delivery potency (whole‐body luciferase), IV and IM (Balb/c mice) | whole‐body luciferase activity after IM administration (Balb/c mice) | whole‐body luciferase activity after IV administration (Balb/c mice) | whole‐body luciferase activity after IV administration (Balb/c mice; 1 mg/kg) | cell viability (293T cells [6]) | decline of ionizable lipid level in plasma during the first 6 hrs [7] | ionizable lipid level in plasma after 12 hrs [7] [ng/mL] | ionizable lipid level in plasma after 24 hrs [7] | remaining after 120 minutes (human liver microsomes)
10 | 95.0 | 5.72 | 0.12 | 76.72 | CCCCCCCCCCCOC(=O)CCCCCC1(CCCCCCCC(=O)OC(CCCCCCCC)CCCCCCCC)OCC(CN(C)C)O1 (stereo not drawn) [KEL1] | – | – | lower delivery efficiency for both IV and IM administration | – | – | – | – | – | – | – | –
11 | 92.3 | 6.88 | 0.03 | 70.27 | CCCCCCCCCCCOC(=O)CCCCCC1(CCCCCCCC(=O)OC(CCCCCCCC)CCCCCCCC)OCC(CCN(C)C)O1 (stereo not drawn) [KEL2] | – | – | higher potency than KEL1 and KEL4; also recorded: higher potency than LNPs with either double branched tails (KEL10) or double linear tails (KEL11) | significantly higher levels of luciferase activity than the DLin‐MC3‐DMA LNP | – | – | – | – | – | – | –
12 | 89.3 | 6.86 | 0.16 | 98.15 | CCCCCCCCCCCOC(=O)CCCCCC1(CCCCCCCC(=O)OC(CCCCCCCC)CCCCCCCC)OCC(CCCN(C)C)O1 (stereo not drawn) [KEL3] | – | – | higher potency than KEL1 and KEL4 | significantly higher levels of luciferase activity than the DLin‐MC3‐DMA LNP | – | – | – | – | – | – | –
13 | 91.0 | 7.40 | 0.16 | 118.1 | CCCCCCCCCCCOC(=O)CCCCCC1(CCCCCCCC(=O)OC(CCCCCCCC)CCCCCCCC)OCC(CCCCN(C)C)O1 (stereo not drawn) [KEL4] | – | – | considerable potency | – | – | – | – | – | – | – | –
14 | 96.5 | 6.86 | 0.07 | 78.44 | CCCCCCCCCCCOC(=O)CCCCCC1(CCCCCCCC(=O)OC(CCCCCCCC)CCCCCCCC)OCC(CCN(C)CC)O1 (stereo not drawn) [KEL5] | – | – | – | – | – | – | – | – | – | – | –
15 | 94.9 | 6.93 | 0.04 | 89.54 | CCCCCCCCCCC(=O)OCCCCCCC1(CCCCCCCC(=O)OC(CCCCCCCC)CCCCCCCC)OCC(CCN(C)C)O1 (stereo not drawn) [KEL12] | – | – | higher potency than LNPs with either double branched tails (KEL10) or double linear tails (KEL11) | significantly higher luciferase activity than DLin‐MC3‐DMA LNP | significantly higher luciferase activity than DLin‐MC3‐DMA LNP by IV | – | – | – | – | – | –
